Reference: patent US20250019400A1, “POLYPEPTIDE AND COSMETIC COMPOSITION OR PHARMACEUTICAL COMPOSITION AND USE THEREOF” (SHENZHEN WINKEY TECHNOLOGY CO., LTD, priority 2022, published 2025)

Test system: smooth muscle contraction in ileum
Assay: Muscle contraction inhibition experiment (acetylcholine-induced smooth muscle contraction in isolated ileum)
Set-up: species or system SD rats
Details: after acetylcholine, rat ileum
Excerpt: 10 week old female SD rats weighing 220 g-260 g.
HW-400S constant temperature smooth muscle trough, BL-420E biological function experimental system, tension transducer, and other instruments as conventional experimental instruments.
acetylcholine chloride (Shanghai Yuanye), chloral hydrate (Shanghai Macklin).
• Acetyl octapeptide-3(Ac-Glu-Glu-Met-Gln-Arg-Arg-Ala-Asp-NH2), at a test concentration of 25 ppm, 50 ppm, 100 ppm, and 200 ppm, respectively; • Acetyl hexapeptide-30(Ac-Glu-Asp-Tyr-Tyr-Arg-Leu-NH2), at a test concentration of 25 ppm, 50 ppm, 100 ppm, and 200 ppm, respectively; • the peptide (4), at a test concentration of 25 ppm, 50 ppm, 100 ppm, and 200 ppm, respectively; • the peptide (8), at a test concentration of 25 ppm, 50 ppm, 100 ppm, and 200 ppm, respectively; • the peptide (32), at a test concentration of 100 ppm, 200 ppm, 400 ppm, and 800 ppm, respectively.
The experimental rats were fasted except for water for 12 hours before the experiment. 10% chloral hydrate was injected intraperitoneally into the rats at a dosage of 0.1 mL/25 g, and after the rats were anesthetized, the abdominal cavity was cut open to expose the enlarged cecum. A segment of ileum was taken out from the ileocecal region and washed clean in a tyrode's solution pre-bubbled with oxygen for 10 min, and several 4 cm long segments of ileum were cut and incubated in a tyrode's solution at 4° C. for subsequent use; and both ends of the ileum were tied partially and knotted with cotton threads to form a loop.
The HW-400S constant temperature smooth muscle trough and the BL-420E biological function experimental system were turned on, the tension transducer was connected to channel 1, the incubation temperature was adjusted to 37° C., the instruments were preheated for 0.5 hours, and oxygen was bubbled for more than 10 min. One end of the ileum segment is fixed to the intake bracket port with a cotton thread, and the other end thereof is connected to the tension transducer. The position and height of the transducer were appropriately adjusted to place the excised ileum segment in the center of the smooth muscle trough and then record of ileum activity was started.
After the muscle contraction was stabilized, acetylcholine with a final concentration of 0.1-1 μg/mL was added until a high and stable waveform appears in the muscle activity, and the action lasted for 5 minutes as the initial control. After balancing for 5 minutes, the samples to be tested were added respectively. Each time the test drug was replaced, the ileum segment was replaced with a new one, and relevant data was recorded by the instruments. The inhibition rate of smooth muscle contraction in ileum was calculated according to the following formula:
Inhibition rate of smooth muscle contraction in ileum=(contraction force after acetylcholine administration−contraction force after test sample administration)/contraction force after acetylcholine administration×100%
The experimental data was represented by mean standard deviation (Mean±SD).

Substance | Inhibition rate of smooth muscle contraction in ileum (25 ppm, Mean±SD) [%] | Inhibition rate of smooth muscle contraction in ileum (50 ppm, Mean±SD) [%] | Inhibition rate of smooth muscle contraction in ileum (100 ppm, Mean±SD) [%] | Inhibition rate of smooth muscle contraction in ileum (200 ppm, Mean±SD) [%] | Inhibition rate of smooth muscle contraction in ileum (800 ppm) [%]
Ac-Glu-Asp-Tyr-Tyr-Arg-Leu-NH2 (Ac-EDYYRL-NH2) [Acetyl hexapeptide-30, polypeptide in the prior art used as comparison sample, reference compound] | 0.00 ± 2.45 | 0.47 ± 2.09 | 2.73 ± 0.66 | 48.09 | 
Ac-Glu-Glu-Met-Gln-Arg-Arg-Ala-Asp-NH2 (Ac-EEMQRRAD-NH2) [Acetyl octapeptide-3, polypeptide in the prior art used as comparison sample, reference compound] | 10.2 ± 1.23 | 32.34 | 47.49 | 58.67 | 
Ac-Ser-Met-Gly-Ala-Leu-Ala-NH2 (Ac-SMGALA-NH2) [Peptide (8)] | 31.99 | 34.35 | 56.42 | 67.96 | 
Ac-Trp-Ala-Ala-Pro-Phe-Leu-Arg-Ala-NH2 (Ac-WAAPFLRA-NH2) [(32)] |  |  |  |  | 44.41
Ac-Val-Lys-Val-Leu-Gln-Trp-NH2 (Ac-VKVLQW-NH2) [Peptide (4)] | 49.78 | 62.40 | 66.72 | 76.88 | 
